How the values were obtained:
[1] = molecular target: T1, Dermatophagoides farinae allergen (DerfII) (Dermatophagoides farinae, UniProt Q00855); type: biochemical; details: 1 mg of sample
T1 sequence (Q00855 18-146): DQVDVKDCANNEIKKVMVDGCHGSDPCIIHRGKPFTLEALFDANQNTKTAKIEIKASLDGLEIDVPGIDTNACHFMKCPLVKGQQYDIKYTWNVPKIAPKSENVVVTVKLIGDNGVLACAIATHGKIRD
Method: (§3) The anti-allergen effect of the present invention is evaluated by a sandwich ELISA method, which is widely known as a method for detecting/quantifying an antigen, and is expressed as the percentage allergen inactivation shown in Equation 1. The initial amount of allergen means the amount of allergen used in an ELISA evaluation, and the amount of allergen remaining means the amount of allergen after contacting a sample.
(§4) Percentage allergen inactivation=(1−amount of allergen remaining/initial amount of allergen)×100(%) <Equation 1>
Anti-allergen effects were evaluated by a sandwich ELISA method employing Dermatophagoides farinae allergen (allergen generally called DerfII) and Cryptomeria japonica pollen allergen (allergen generally called Cryj1). […]
1 mg or 10 mg of a sample was weighed, and 500 μL of Dermatophagoides farinae allergen (DerfII) prepared at 40 ng/mL using an antigen diluent was added thereto. […] After 30 minutes, 2N sulfuric acid was added so as to stop the reaction, and the absorbance at 490 nm was measured. The results were expressed as percentage allergen inactivation of various samples by determining the relationship between amount of allergen and absorbance from an evaluation carried out without using a sample, determining the amount of allergen remaining from the absorbance obtained when evaluating various types of samples, and calculating from equation 1.

[2] = molecular target: T2, Cryptomeria japonica pollen allergen (Cryj1) (Cryptomeria japonica, UniProt P18632); type: biochemical; details: 1 mg of sample
T2 sequence (P18632 22-374): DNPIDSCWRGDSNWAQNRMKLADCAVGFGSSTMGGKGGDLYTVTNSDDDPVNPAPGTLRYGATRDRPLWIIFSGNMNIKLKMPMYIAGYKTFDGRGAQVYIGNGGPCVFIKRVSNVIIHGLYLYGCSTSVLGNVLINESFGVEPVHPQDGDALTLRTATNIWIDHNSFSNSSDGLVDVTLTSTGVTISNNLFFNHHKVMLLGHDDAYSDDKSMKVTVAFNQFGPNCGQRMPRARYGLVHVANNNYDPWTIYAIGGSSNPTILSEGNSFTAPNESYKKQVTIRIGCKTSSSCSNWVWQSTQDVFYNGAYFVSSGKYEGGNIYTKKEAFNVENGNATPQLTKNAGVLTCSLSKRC
Method: as §3, §4
The test procedure for the sandwich ELISA method when Cryptomeria japonica pollen allergen was used was as follows.
1 mg or 10 mg of a sample was weighed, and 500 μL of Cryptomeria japonica pollen allergen (Cryj1) prepared at 10 ng/mL using an antigen diluent was added thereto. […] After 2 hours, the antibody liquid was discarded, each well was washed with washing buffer, a substrate liquid was added to each well, and the wells were allowed to stand at room temperature. After 10 minutes, 2N sulfuric acid was added so as to stop the reaction, and the absorbance at 490 nm was measured. The results are expressed as percentage allergen inactivation of various types of samples by calculating from Equation 1 by the same method as for Dermatophagoides farinae allergen.

[3] = molecular target: T3, Dermatophagoides farinae allergen (Den) (Dermatophagoides farinae, UniProt Q00855); experiment: ELISA, anti-allergen effect of processed fiber product; type: biochemical; details: fabric after washing in 500 mL ion exchanged water 1 minute, air-dried; standardized to blank = 0
T3 sequence (Q00855 18-146): T1 sequence (Q00855 18-146)
Method: When a test target is an article comprising another substance in addition to an anti-allergen agent, such as a coating agent containing an anti-allergen agent, a resin kneaded with an anti-allergen agent, or a fiber having an anti-allergen agent attached thereto, a blank test is carried out using the same article except that the anti-allergen agent is excluded, and other measurement results may be standardized so that the percentage allergen inactivation of the blank test becomes 0. In this case, as long as it is stated that a measurement result is standardized, the value after standardization may be used as the percentage allergen inactivation.
The anti-allergen effects of a processed fiber product were evaluated as percentage anti-allergen inactivation from Equation 1 above by measuring absorbance by the same ELISA method as for a solid acid powder using Dermatophagoides farinae allergen (Den) as the allergen and dividing […] of fiber into 8, and comparing with the absorbance when a fiber product having no solid acid added thereto was used.

[4] = Yellowness (YI value, JIS-K7103-1977); type: physicochemical; details: powder
Description: With regard to a preferred yellowness, the YI value in accordance with JIS-K7103-1977 is preferably 50 or less, more preferably 20 or less, and yet more preferably 15 or less.

[5] = Discoloration test in PBS or ion exchanged water; type: physicochemical
Method: (§1) 1 mg of anti-allergen agent (1) of Example 2-1 was placed in 0.5 mL of PBS (pH 7.29, containing 0.1% Tween 20 and 0.001% BSA) and allowed to stand at room temperature for 3 days, color change and allergen inactivating effect were then measured, and the results are shown in Table 7.
1 mg of anti-allergen agent (1) of Example 2-1 was placed in 0.5 mL of ion exchanged water (pH 6.37) and allowed to stand at room temperature for 7 days, color change was then examined, and the result is shown in Table 7.
(§2) 1 mg of tannic acid was placed in 0.5 mL of PBS (pH 7.29, containing 0.1% Tween 20 and 0.001% BSA) and allowed to stand at room temperature for 3 days, color change and allergen inactivating effect were then measured, and the results are shown in Table 7.
1 mg of tannic acid was placed in 0.5 mL of ion exchanged water (pH 6.37) and allowed to stand at room temperature for 7 days, color change was examined, and the result is shown in Table 7.

allergen = experiment: Allergen inactivating effect after standing in PBS (discoloration test); type: biochemical; details: 1 mg after 3 days in 0.5 mL PBS at room temperature
Method: as §1, §2

O=C(OC[C@H]1O[C@@H](OC(=O)c2cc(O)c(O)c(OC(=O)c3cc(O)c(O)c(O)c3)c2)[C@H](OC(=O)c2cc(O)c(O)c(OC(=O)c3cc(O)c(O)c(O)c3)c2)[C@@H](OC(=O)c2cc(O)c(O)c(OC(=O)c3cc(O)c(O)c(O)c3)c2)[C@@H]1OC(=O)c1cc(O)c(O)c(OC(=O)c2cc(O)c(O)c(O)c2)c1)c1cc(O)c(O)c(OC(=O)c2cc(O)c(O)c(O)c2)c1 [Comparative Example 2-1, Tannic Acid]
Percentage allergen inactivation (%) DerfII [1]: 95%
Percentage allergen inactivation (%) Cryj1 [2]: 97%
Percentage allergen inactivation (%) [3]: activity disappeared after washing
Yellowness [4]: 71.28
Yellowness ([4]; listed as tannic acid): 71.8
Color of solution (after evaluation) ([5]; 1 mg in 0.5 mL PBS pH 7.29 (0.1% Tween 20, 0.001% BSA), room temperature, 3 days): Brown
Color of solution (after evaluation) ([5]; 1 mg in 0.5 mL ion exchanged water pH 6.37, room temperature, 7 days): Brown
Percentage allergen inactivation (%) (allergen): Less than 50%
